According to PubChem BioAssay (NCI):
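Dose response: 5 concentrations. Exposure: 48 h. Format: 96-well plates. Endpoint: linear interpolation; highest concentration if not reached. GI50 marks 50% less growth. TGI marks complete inhibition of growth.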

Assays:
Assay in all cases: NCI-60 cell line screen, 48 h
HCT-15 colon = tested on: HCT-15 colon
HOP-62 NSCLC = tested on: HOP-62 NSCLC
HOP-92 NSCLC = tested on: HOP-92 NSCLC
MCF7 breast = tested on: MCF7 breast
NCI-H522 lung = tested on: NCI-H522 lung
PC-3 prostate = tested on: PC-3 prostate
SN12C renal = tested on: SN12C renal
SNB-19 CNS = tested on: SNB-19 CNS

Compound	GI50 (HCT-15 colon)	TGI (HCT-15 colon)	GI50 (HOP-62 NSCLC)	TGI (HOP-62 NSCLC)	GI50 (HOP-92 NSCLC)	TGI (HOP-92 NSCLC)	GI50 (MCF7 breast)	TGI (MCF7 breast)	GI50 (NCI-H522 lung)	TGI (NCI-H522 lung)	GI50 (PC-3 prostate)	TGI (PC-3 prostate)	GI50 (SN12C renal)	TGI (SN12C renal)	GI50 (SNB-19 CNS)	TGI (SNB-19 CNS)
COC(=O)COc1ccccc1/C=C1\N=C(c2ccccc2)N(c2cc(C(F)(F)F)ccc2Cl)C1=O	> 100 µM	> 100 µM	45 µM	> 100 µM	33.2 µM	> 100 µM	39.1 µM	> 100 µM	38.2 µM	> 100 µM	32.5 µM	> 100 µM	60.5 µM	> 100 µM	43.5 µM	> 100 µM
CC/C=C\C[C@H](O)C/C=C1/C(=O)C(Cl)=C[C@@H]1C/C=C\CCCC(=O)OC	0.387 µM	1.67 µM	0.53 µM	2.25 µM	2.57 µM	5.46 µM	0.185 µM	2.44 µM	0.271 µM	0.592 µM	0.54 µM	2.33 µM	0.426 µM	1.33 µM	0.946 µM	3.31 µM
Nc1ccc([N+](=O)[O-])cc1N=C/C=C/c1ccccc1	13.5 µM	> 100 µM	42.5 µM	> 100 µM	–	–	6.61 µM	> 100 µM	4.47 µM	59 µM	7.67 µM	> 100 µM	8.06 µM	> 100 µM	31.5 µM	> 100 µM
CCCCC#CC1=C(Br)C(=O)OC1	1.02 µM	–	7.13 µM	20.8 µM	2.04 µM	18.7 µM	1.03 µM	8.08 µM	2.27 µM	5.08 µM	1.28 µM	9.43 µM	1.58 µM	4.27 µM	12.9 µM	37.1 µM
N=C(N)C1CN(CCc2c[nH]c3ccccc23)C(=O)NC1=O (stereo not drawn)	–	> 100 µM	–	> 100 µM	–	> 100 µM	–	> 100 µM	–	–	–	> 100 µM	–	> 100 µM	–	> 100 µM
CCN(CC)CCC(CNc1ccnc2cc(Cl)ccc12)c1ccc(Cl)cc1 (stereo not drawn)	1.05 µM	4.89 µM	1.78 µM	5.9 µM	0.995 µM	3.19 µM	1.06 µM	2.32 µM	0.608 µM	2.19 µM	3.28 µM	17.7 µM	1.84 µM	10.4 µM	1.98 µM	5.78 µM
CN1CCN(C2CCN(C(=O)Nc3cc(Oc4ccc(NC(=O)C5(C(=O)Nc6ccc(F)cc6)CC5)c(F)c4)ccn3)CC2)CC1	2.04 µM	> 10 µM	–	> 3.92 µM	0.483 µM	> 2.54 µM	1.09 µM	> 10 µM	–	> 2.66 µM	1.01 µM	> 3.84 µM	0.855 µM	> 7.82 µM	0.354 µM	> 10 µM
COc1cc(C(=O)N2CCN(C=O)C2=S)cc(OC)c1OC	25.6 µM	73.6 µM	20 µM	61.1 µM	9.26 µM	26.2 µM	5.49 µM	24.6 µM	5.8 µM	20.8 µM	22.2 µM	58.2 µM	20.2 µM	40.2 µM	28.5 µM	70.4 µM
C#CCOc1cccc(-c2ncc3cc(NC(=O)CCl)ccc3n2)c1	–	–	2.02 µM	3.81 µM	–	–	–	–	1.16 µM	2.51 µM	–	–	1.44 µM	2.93 µM	1.76 µM	3.45 µM
N#Cc1c(NC(=O)NCc2ccccc2)sc2c1CCCCC2	0.417 µM	> 100 µM	0.706 µM	> 64.2 µM	0.547 µM	20.9 µM	0.353 µM	> 100 µM	0.601 µM	25.3 µM	0.488 µM	> 100 µM	0.682 µM	> 100 µM	0.588 µM	> 100 µM
CSc1nc(=O)n(CCC#N)nc1SC	–	> 100 µM	–	> 100 µM	–	–	–	9.04 µM	–	61.8 µM	–	> 100 µM	–	> 100 µM	–	> 100 µM
NC(N)=N/N=C/c1c(-c2ccsc2)nc2sccn12	17.1 µM	31.7 µM	14.3 µM	27.4 µM	–	–	–	–	12.2 µM	30.5 µM	13.2 µM	26 µM	15.7 µM	29.7 µM	16.7 µM	32.6 µM
NC(=O)/C=C/C(=O)c1c(Cl)cccc1Cl	–	2.3 µM	2.63 µM	–	0.574 µM	1.94 µM	0.444 µM	1.79 µM	0.204 µM	0.432 µM	1.46 µM	2.81 µM	1.4 µM	2.69 µM	1.75 µM	3.38 µM
COc1ccc(OC)c2c1[nH]c(=O)c1c3ccccc3cn21	0.693 µM	2.42 µM	1.52 µM	3.18 µM	1.5 µM	3.31 µM	0.0727 µM	1.98 µM	1.7 µM	3.48 µM	1.39 µM	4.21 µM	1.23 µM	2.58 µM	1.64 µM	3.4 µM
NC(=S)N/N=C/C(=O)O	> 100 µM	> 100 µM	> 100 µM	> 100 µM	–	–	5.58 µM	> 100 µM	> 100 µM	> 100 µM	67.7 µM	> 100 µM	> 100 µM	> 100 µM	> 100 µM	> 100 µM
CCN1CCN(C(=O)[C@@]2(C)CC[C@]3(C)CC[C@]4(C)C(=CC(=O)[C@@H]5[C@@]6(C)CC[C@H](OC7C[C@@H](O)[C@@H](O)C(C)O7)C(C)(C)[C@@H]6CC[C@]54C)[C@@H]3C2)CC1 (stereo partly drawn)	2.21 µM	8.67 µM	2.39 µM	10.8 µM	5.25 µM	12.5 µM	1.79 µM	7.54 µM	1.59 µM	6.15 µM	2.47 µM	9.02 µM	0.896 µM	1.83 µM	2.26 µM	8.57 µM
c1ccc(-c2nnc(-c3ccccn3)s2)nc1	83.7 µM	> 100 µM	> 100 µM	> 100 µM	7.46 µM	> 100 µM	0.788 µM	> 100 µM	> 100 µM	> 100 µM	> 100 µM	> 100 µM	> 100 µM	> 100 µM	> 100 µM	> 100 µM
